{"source": "patent US20200197335A1", "about": "“CANCER THERAPEUTIC” (priority 2017, published 2020)", "key": {"Squamous Cell Carcinoma": {"system": "Squamous Cell Carcinoma", "settings": "propranolol 160 mg daily with curcumin and celebrex, five weeks; reduced to 40 mg daily"}, "[1]": {"settings": "cited from earlier work"}, "[2]": {"system": "Stage IV Adenocarcinoma of Lung", "test": "Treatment of Patient X with Stage IV adenocarcinoma of lung, followed by repeat PET CT", "format": "in vivo, human", "experimental": "Commenced RAS modulation: • Aspirin: 300mg once daily • Start Date: 20 Jun. 2015\n2015 • + Cilazapril: 2.5 mg once daily • Start Date: 26 Nov. 2015\n2015 • + Doxycycline: 100mg once daily • Start Date: 20 Feb. 2016"}, "[3]": {"settings": "piperine included in the curcumin formulation; cited from earlier work"}, "[4]": {"system": "several tumoral cell lines", "settings": "cited from earlier work"}}, "note": "Read-outs that look alike come from different tables or passages of the source."}
{"molecule": "CC(C)NCC(O)COc1cccc2ccccc12", "note": "(racemic) [Propranolol, (RS)-1-(1-methylethylamino)-3-(1-naphthyloxy)propan-2-ol]", "values": [{"measurement": "Adverse effects leading to dose reduction", "setting": "Squamous Cell Carcinoma", "value": "feeling ‘weak in the legs’ and had two episodes of falls"}, {"measurement": "Uncommon side effects", "setting": "[1]; Uncommon (0.1-0.9%)", "value": "Gastrointestinal disturbance, such as nausea, vomiting, diarrhoea"}]}
{"molecule": "CC(=O)Oc1ccccc1C(=O)O", "note": "[Aspirin, acetylsalicylic acid]", "values": [{"measurement": "Common side effects", "setting": "[1]; in vivo", "value": "Increased bleeding tendencies, dyspepsia"}, {"measurement": "Rare side effects", "setting": "[1]; in vivo", "value": "Thrombocytopenia, agranulocytosis, aplastic anaemia, hypersensitivity reactions, angio-oedema, allergic oedema, anaphylactic reactions including shock"}, {"measurement": "Uncommon side effects", "setting": "[1]; in vivo", "value": "Urticaria, rhinitis, dyspnoea"}, {"measurement": "Repeat PET CT", "setting": "[2]; 28 Jul. 2015, Aspirin 300mg once daily from 20 Jun. 2015", "value": "static appearance with low levels of activity remaining at both the primary and left lung metastasis sites"}]}
{"molecule": "Cc1ccc(-c2cc(C(F)(F)F)nn2-c2ccc(S(N)(=O)=O)cc2)cc1", "note": "[Celecoxib, 4-[5-(4-methylphenyl)-3-(trifluoromethyl)pyrazol-1-yl]benzenesulfonamide]", "values": [{"measurement": "Diarrhoea, frequency", "setting": "[1]; listed as common", "value": "4-10%"}, {"measurement": "Headache, frequency", "setting": "[1]; listed as common", "value": "10-15%"}, {"measurement": "Hypertension, frequency", "setting": "[1]; listed as common", "value": "2-12%"}, {"measurement": "Nausea, frequency", "setting": "[1]; listed as common", "value": "3-7%"}, {"measurement": "Gastrointestinal haemorrhage, frequency", "setting": "[1]; listed as serious", "value": "less than 0.1%"}, {"measurement": "Gastrointestinal perforation, frequency", "setting": "[1]; listed as serious", "value": "less than 0.1%"}, {"measurement": "Thrombosis, frequency", "setting": "[1]; listed as serious", "value": 1.2, "unit": "%"}]}
{"molecule": "CCOC(=O)[C@H](CCc1ccccc1)N[C@H]1CCCN2CCC[C@@H](C(=O)O)N2C1=O", "note": "[Cilazapril, (4S,7S)-7-[[(2S)-1-Ethoxy-1-oxo-4-phenylbutan-2-yl]amino]-6-oxo-1,2,3,4,7,8,9,10-octahydropyridazino[1,2-a]diazepine-4-carboxylic acid]", "values": [{"measurement": "Common side effects", "setting": "[1]; in vivo", "value": "Fatigue, hypotension, dyspepsia, nausea and other gastrointestinal disturbances, headache, rash and coughing"}, {"measurement": "Rare side effects", "setting": "[1]; in vivo", "value": "Skin rashes including erythema multiforme and toxic epidermal necrolysis may occur. Photosenstivity, alopecia and other hypersensitivity reactions"}, {"measurement": "Uncommon side effects", "setting": "[1]; in vivo", "value": "Tachycardia, palpitations and chest pain"}]}
{"molecule": "CCCCc1nc(Cl)c(CO)n1Cc1ccc(-c2ccccc2-c2nn[nH]n2)cc1", "note": "[Losartan]", "values": [{"measurement": "Common side effects", "setting": "[1]; in vivo", "value": "Cold or flu symptoms such as stuffy nose, sneezing, sore throat, fever, muscle cramps, pain in the legs or back, stomach pain, diarrhoea, headache, dizziness, tired feeling, sleep problems (insomnia)"}]}
{"molecule": "CN(C)C(=N)N=C(N)N", "note": "[Metformin, N,N-dimethylimidodicarbonimidic diamide]", "values": [{"measurement": "Mild gastrointestinal symptoms (diarrhoea, nausea, vomiting, loss of appetite), frequency", "setting": "[1]; especially during the initial treatment period", "value": "> 1/10"}, {"measurement": "Metallic taste, frequency", "setting": "[1]; worded 'Common' within the Very Rare paragraph", "value": 3, "unit": "%"}]}
{"molecule": "C#Cc1cccc(Nc2ncnc3cc(OCCOC)c(OCCOC)cc23)c1", "note": "[Tarceva]", "values": [{"measurement": "Repeat PET CT", "setting": "[2]; 1 Apr. 2015, on Tarceva", "value": "new right para-aortic node with high avidity"}, {"measurement": "Repeat PET CTs", "setting": "[2]; 12 Jul. 2011 to 5 Nov. 2013, Tarceva 150mg once daily from 2 Jun. 2011", "value": "remission of the cancer"}]}
{"molecule": "O=C(C=CC=Cc1ccc2c(c1)OCO2)N1CCCCC1", "note": "[piperine, 1-[5-(1,3-Benzodioxol-5-yl)-1-oxo-2,4-pentadienyl]piperidine]", "values": [{"measurement": "Effect on bioavailability of Curcumin", "setting": "[3]", "value": "increases the bioavailability of Curcumin"}]}
{"molecule": "[Pt(dmba)(aza-N1)(dmso)] complex 1", "values": [{"measurement": "IC50 relative to cisplatin", "setting": "[4]", "value": "lower IC50 than cisplatin"}]}
